The text below walks through data of US6881741B2 (ViroChem Pharma Inc., priority 2001, dated 2005).

The experiment has as its target recombinant HCV NS5B (HCV RNA-dependent RNA polymerase) (Hepatitis C virus genotype 1b, UniProt P26663). The experiment can be described thus: biochemical.
[1] abbreviates: related polymerase activity (Example 27 list), read-out: IC50.
Setting [2] is: HCV polymerase activity, list of compounds of Example 27, read-out: IC50 (polymerase activity).

Usually IC50 stands for the concentration that inhibits the measured activity by half.

Read-outs that look alike come from different tables or passages of the source.

recombinant HCV NS5B (HCV RNA-dependent RNA polymerase), sequence (P26663 2420-3010 limits assumed): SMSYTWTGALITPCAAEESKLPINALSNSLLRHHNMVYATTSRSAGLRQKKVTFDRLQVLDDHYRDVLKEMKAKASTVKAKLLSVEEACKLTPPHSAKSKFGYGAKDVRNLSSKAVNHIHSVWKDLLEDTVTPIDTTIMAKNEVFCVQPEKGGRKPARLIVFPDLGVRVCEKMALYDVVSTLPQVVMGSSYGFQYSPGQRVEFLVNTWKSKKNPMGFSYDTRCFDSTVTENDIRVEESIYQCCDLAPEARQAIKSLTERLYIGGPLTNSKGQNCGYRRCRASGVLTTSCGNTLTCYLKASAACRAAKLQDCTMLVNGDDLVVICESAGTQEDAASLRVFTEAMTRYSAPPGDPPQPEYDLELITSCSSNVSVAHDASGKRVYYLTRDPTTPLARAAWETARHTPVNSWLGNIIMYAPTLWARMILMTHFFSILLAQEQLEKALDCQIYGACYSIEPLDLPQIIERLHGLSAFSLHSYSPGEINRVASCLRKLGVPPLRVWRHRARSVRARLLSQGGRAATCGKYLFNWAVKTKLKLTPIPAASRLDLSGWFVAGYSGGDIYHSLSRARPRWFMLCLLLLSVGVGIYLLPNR

In the case of `CC(C)(C)N(C(=O)c1ccc(Cl)cc1Cl)c1cc(-c2ccccc2)sc1C(=O)O` [Compound 327, 3-[#TERT!-BUTYL-(2,4-DICHLORO- BENZOYL)-AMINO]-5-PHENYL- THIOPHENE-2-CARBOXYLIC ACID], the IC50 under setting [1] was less than 5 µM.

On to `O=C(O)c1sc(-c2ccccc2)cc1NS(=O)(=O)c1cnc(Cl)c(Br)c1` [Compound 36, 3-(5-BROMO-6-CHLORO-PYRIDINE-3-SULFONYLAMINO)-5-PHENYL-THIOPHENE-2-CARBOXYLIC ACID], for which the half-maximal inhibitory concentration (IC50) under setting [1] is greater than 20 µM. As to `Cc1ccc(C(=O)N(c2cc(-c3ccccc3)sc2C(=O)O)C(C)C)c(/C=N/O)c1` [Compound 505, 3-{[2-(HYDROXYIMINO-METHYL)-4- METHYL-BENZOYL]-ISOPROPYL-AMINO)-5- PHENYL-THIOPHENE-2-CARBOXYLIC ACID], the IC50 under setting [2] was 5 to 20 µM. On to `C=CCN(C(=O)CCCCC)c1cc(-c2ccccc2)sc1C(=O)O` [Compound 397, 3-(ALLYL-HEXANOYL-AMINO)-5-PHENYL- THIOPHENE-2-CARBOXYLIC ACID], for which the 50% inhibitory concentration (IC50) under setting [1] was in the range of 5 to 20 µM.

With `O=C(O)c1sc(-c2ccccc2)cc1NS(=O)(=O)c1ccc(F)c(F)c1` [Compound 143, 3-(3,4-DIFLUORO-BENZENESULFONYLAMINO)-5-PHENYL-THIOPHENE-2-CARBOXYLIC ACID], the half-maximal inhibitory concentration (IC50) under setting [1] is less than 5 µM. Same read-out and setting: the result for `CCc1ccc(-c2cc(NS(=O)(=O)c3ccccc3C)c(C(=O)O)s2)cc1` [Compound 232, 5-(4-ETHYL-PHENYL)-3-(TOLUENE-2-SULFONYLAMINO)-THIOPHENE-2-CARBOXYLIC ACID] reads less than 5 µM; that for `Cc1ccc(C)c(S(=O)(=O)Nc2cc(-c3ccccc3)sc2C(=O)O)c1` [Compound 21, 3-(2,5-DIMETHYL-BENZENESULFONYLAMINO)-5-PHENYL-THIOPHENE-2-CARBOXYLIC ACID], 5 to 20 µM. On the same count and under the same terms, the result for `C=CCN(C(=O)c1ccc(C)cc1)c1cc(-c2ccc(/C=C/C(=O)O)cc2)sc1C(=O)O` [Compound 312, 3-[ALLYL-(4-METHYL-BENZOYL)-AMINO]- 5-[4-(2-CARBOXY-VINYL)-PHENYL]- THIOPHENE-2-CARBOXYLIC ACID] reads less than 5 µM. Turning to `Cc1ccc(S(=O)(=O)Nc2cc(-c3ccc(Cl)cc3)sc2C(N)=O)cc1` [Compound 563, 5-(4-CHLORO-PHENYL)-3-(TOLUENE-4- SULFONYLAMINO)-THIOPHENE-2- CARBOXYLIC ACID AMIDE], the half-inhibitory concentration (IC50) under setting [2] lay within 5 to 20 µM.

In the case of `CCCC1CCC(C(=O)N(c2cc(-c3ccccc3)sc2C(=O)O)C(C)C)CC1` (stereo not shown) [Compound 527, 3-[ISOPROPYL-(4-PROPYL- CYCLOHEXANECARBONYL)-AMINO]-5- PHENYL-THIOPHENE-2-CARBOXYLIC ACID], the concentration for half-maximal inhibition (IC50) under setting [2] is less than 5 µM. Still for that read-out and setting: the same measure for `CCCC(=O)N(Cc1cccc(Cl)c1)c1cc(-c2ccccc2)sc1C(=O)O` [Compound 482, 3-[BUTYRYL-(3-CHLORO-BENZYL)- AMINO]-5-PHENYL-THIOPHENE-2- CARBOXYLIC ACID]: less than 5 µM; for `CC1CCC(C(=O)N(c2cc(C3=CCN(C(=O)OCc4ccccc4)CC3)sc2C(=O)O)C(C)C)CC1` (stereo not shown) [Compound 524, 4-{5-CARBOXY-4-[ISOPROPYL-(4- METHYL-CYCLOHEXANECARBONYL)- AMINO]-THIOPHEN-2-YL}-3,6-DIHYDRO- 2#H!-PYRIDINE-1-CARBOXYLIC ACID BENZYL ESTER]: less than 5 µM. Same read-out and setting: the same measure for `O=C(O)c1sc(-c2ccccc2)cc1N(Cc1ccc(F)cc1F)C(=O)C1CCCCC1` [Compound 490, 3-[CYCLOHEXANECARBONYL-(2,4- DIFLUORO-BENZYL)-AMINO]-5-PHENYL- THIOPHENE-2-CARBOXYLIC ACID]: less than 5 µM.

In the case of `Cc1cc(S(=O)(=O)Nc2cc(-c3ccccc3)sc2C(=O)O)c(C)cc1Cl` [Compound 3, 3-(4-CHLORO-2,5-DIMETHYL-BENZENESULFONYLAMINO)-5-PHENYL-THIOPHENE-2-CARBOXYLIC ACID], under setting [1], the half-inhibitory concentration (IC50) was 5 to 20 µM. Take `CC(C)N(C(=O)c1ccc(Cl)cc1Cl)c1cc(-c2ccc(S(C)(=O)=O)cc2)sc1C(=O)O` [Compound 373, 3-[(2,4-DICHLORO-BENZOYL)- ISOPROPYL-AMINO]-5-(4- METHANESULFONYL-PHENYL)- THIOPHENE-2-CARBOXYLIC ACID]: the IC50 under setting [1] is less than 5 µM. As to `O=C(O)c1sc(-c2ccccc2)cc1N(Cc1ccc(C(F)(F)F)cc1)C(=O)C1CCC1` [Compound 414, 3-[CYCLOBUTANECARBONYL-(4- TRIFLUOROMETHYL-BENZYL)-AMINO]-5- PHENYL-THIOPHENE-2-CARBOXYLIC ACID], the half-inhibitory concentration (IC50) under setting [2] lay within 5 to 20 µM. Turning to `Cc1ccc(-c2cc(NS(=O)(=O)c3ccc(F)cc3F)c(C(=O)O)s2)cc1` [Compound 119, 3-(2,4-DIFLUORO-BENZENESULFONYLAMINO)-5-P-TOLYL-THIOPHENE-2-CARBOXYLIC ACID], the IC50 under setting [1] is less than 5 µM. Same read-out and setting: the result for `C=CCN(C(=O)c1ccc(C)cc1)c1cc(-c2ccccc2)sc1C(=O)O` [Compound 162, 3-[ALLYL-(4-METHYL-BENZOYL)-AMINO]-5-PHENYL-THIOPHENE-2-CARBOXYLIC ACID] reads less than 5 µM.

With `NC1CCC(N(C(=O)c2ccc(Cl)cc2Cl)c2cc(-c3ccccc3)sc2C(=O)O)CC1` (stereo not shown) [Compound 528, 4-[(2-CARBOXY-5-PHENYL-THIOPHEN-3- YL(-(2,4-DICHLORO-BENZOYL)-AMINO]- CYCLOHEXYL-AMMONIUM; TRIFLUORO- ACETATE], under setting [2], the IC50 is less than 5 µM. Take `Cc1ccc(C(=O)N(c2cc(-c3ccc(F)cc3)sc2C(=O)O)C(C)C)cc1` [Compound 283, 5-(4-FLUORO-PHENYL)-3-[ISOPROPYL-(4-METHYL-BENZOYL)-AMINO]-THIOPHENE-2-CARBOXYLIC ACID]: the half-maximal inhibitory concentration (IC50) under setting [1] was less than 5 µM. For `CC(C)N(c1cc(-c2ccc(-c3ccc(Cl)cc3)cc2)sc1C(=O)O)C(=O)[C@H]1CC[C@H](C)CC1` [Compound 571, 5-(4′-CHLORO-BIPHENYL-4-YL)-3- [ISOPROPYL-(4-METHYL- CYCLOHEXANECARBONYL)-AMINO]- THIOPHENE-2-CARBOXYLIC ACID], the IC50 under setting [2] was less than 5 µM. As for `Cc1ccccc1S(=O)(=O)Nc1cc(-c2ccc(S(C)(=O)=O)cc2)sc1C(=O)O` [Compound 89, 5-(4-METHANESULFONYL-PHENYL)-3-(TOLUENE-2-SULFONYLAMINO)-THIOPHENE-2-CARBOXYLIC ACID], the IC50 under setting [1] was less than 5 µM. Same read-out and setting: the result for `C=Cc1cc(NS(=O)(=O)c2ccccc2C)c(C(=O)O)s1` [Compound 71, 3-(TOLUENE-2-SULFONYLAMINO)-5-VINYL-THIOPHENE-2-CARBOXYLIC ACID] reads 5 to 20 µM; that for `O=C(O)c1sc(-c2ccccc2)cc1NS(=O)(=O)c1cccc(Cl)c1` [Compound 40, 3-(3-CHLORO-BENZENESULFONYLAMINO)-5-PHENYL-THIOPHENE-2-CARBOXYLIC ACID], less than 5 µM. Take `CC(C)C(=O)N(Cc1ccc(F)cc1F)c1cc(-c2ccccc2)sc1C(=O)O` [Compound 485, 3-[(2,4-DIFLUORO-BENZYL)- ISOBUTYRYL-AMINO]-5-PHENYL- THIOPHENE-2-CARBOXYLIC ACID]: the half-inhibitory concentration (IC50) under setting [2] was in the range of 5 to 20 µM. The same measure, in the same setting: the result for `CC(C)N(C(=O)c1ccc(Cl)cc1Cl)c1cc(C2CCNCC2)sc1C(=O)O` [Compound 526, 3-[(2,4-DICHLORO-BENZOYL)- ISOPROPYL-AMINO]-5-PIPERIDIN-4-YL- THIOPHENE-2-CARBOXYLIC ACID; COMPOUND WITH TRIFLUORO-ACETIC ACID] reads greater than 20 µM. On to `O=C(O)c1sc(-c2ccccc2)cc1NS(=O)(=O)c1ccc(Cl)c(Cl)c1` [Compound 34, 3-(3,4-DICHLORO-BENZENESULFONYLAMINO)-5-PHENYL-THIOPHENE-2-CARBOXYLIC ACID], for which, under setting [1], the IC50 fell in the range of 5 to 20 µM. Regarding `O=C(O)c1sc(-c2ccccc2)cc1N(Cc1ccccc1Cl)C(=O)C1CCCCC1` [Compound 444, 3-[(2-CHLORO-BENZYL)- CYCLOHEXANECARBONYL-AMINO]-5- PHENYL-THIOPHENE-2-CARBOXYLIC ACID], the IC50 under setting [2] is less than 5 µM. Take `Cc1ccc(C(=O)N(C)c2cc(-c3cc(F)cc(F)c3)sc2C(=O)O)cc1` [Compound 212, 5-(3,5-DIFLUORO-PHENYL)-3-[METHYL-(4-METHYL-BENZOYL)-AMINO]-THIOPHENE-2-CARBOXYLIC ACID]: the IC50 under setting [1] is less than 5 µM. Still for that read-out and setting: the same measure for `O=C(O)c1sc(-c2ccccc2)cc1NS(=O)(=O)c1cccs1` [Compound 23, 5-PHENYL-3-(THIOPHENE-2-SULFONYLAMINO)-THIOPHENE-2-CARBOXYLIC ACID]: less than 5 µM; for `CC(C)CC(=O)N(C)c1cc(-c2ccccc2)sc1C(=O)O` [Compound 172, 3-[METHYL-(3-METHYL-BUTYRYL)-AMINO]-5-PHENYL-THIOPHENE-2-CARBOXYLIC ACID]: less than 5 µM. Same read-out and setting: the same measure for `CC(C)N(C(=O)c1ccc(Cl)cc1Br)c1cc(-c2ccccc2)sc1C(=O)O` [Compound 306, 3-[(2-BROMO-4-CHLORO-BENZOYL)- ISOPROPYL-AMINO]-5-PHENYL- THIOPHENE-2-CARBOXYLIC ACID]: less than 5 µM. Take `COCC(=O)N(Cc1ccccc1)c1cc(-c2ccccc2)sc1C(=O)O` [Compound 452, 3-[BENZYL-(2-METHOXY-ACETYL)- AMINO]-5-PHENYL-THIOPHENE-2- CARBOXYLIC ACID]: the half-inhibitory concentration (IC50) under setting [2] is less than 5 µM. Same read-out and setting: the same measure for `CC1CCC(C(=O)N(CC2CCNCC2)c2cc(-c3ccccc3)sc2C(=O)O)CC1` (stereo not shown) [Compound 544, 4-([(2-CARBOXY-5-PHENYL-THIOPHEN-3- YL)-(4-METHYL- CYCLOHEXANECARBONYL)-AMINO]- METHYL)-PIPERIDINIUM; TRIFLUORO- ACETATE]: less than 5 µM; for `CC1CCC(C(=O)N(c2cc(-c3ccccc3)sc2C(=O)O)C2COC(C)(C)OC2)CC1` (stereo not shown) [Compound 517, 3-[(2,2-DIMETHYL-[1,3]DIOXAN-5-YL)-(4- METHYL-CYCLOHEXANECARBONYL)- AMINO]-5-PHENYL-THIOPHENE-2- CARBOXYLIC ACID]: less than 5 µM. For `Cc1ccccc1S(=O)(=O)Nc1cc(-c2cccc(O)c2)sc1C(=O)O` [Compound 171, 5-(3-HYDROXY-PHENYL)-3-(TOLUENE-2-SULFONYLAMINO)-THIOPHENE-2-CARBOXYLIC ACID], the half-maximal inhibitory concentration (IC50) under setting [1] was less than 5 µM. Take `Cc1cc(F)ccc1S(=O)(=O)Nc1cc(-c2ccccc2)sc1C(=O)O` [Compound 370, 3-(4-FLUORO-2-METHYL- BENZENESULFONYLAMINO)-5-PHENYL- THIOPHENE-2-CARBOXYLIC ACID]: the IC50 under setting [1] lay in the range of 5 to 20 µM.
